Test: Bioavailability: plasma concentration after oral administration to rats
Type: in vivo, male Sprague-Dawley rats
Details: for AUC: rat plasma, 3 rats; for Presence of the unchanged prodrug in the blood samples: 50 mg/kg po as aqueous solution (PBS), HPLC-MS; for Presence of the unchanged prodrug in the blood samples / Delivery of parent drug (PL-100 / PL-337) compared to non-aqueous formulations of the parent drug: rat; for Delivery of parent drug (PL-100 / PL-337) compared to non-aqueous formulations of the parent drug: aqueous dosing, 50 mg/kg po
Description: To assess the extent of in vivo cleavage of the phosphate group from the putative compounds, PL-100, PL-462 (based on PL-100), PL-337 and PL-515 (based on PL-337) compounds were administered per os (po) (50 mg/kg) to male Sprague-Dawley rats and their plasma concentration measured at different time intervals post-administration. All test articles (PL-100, PL-462, PL-337 and PL-515) were prepared in different vehicle at the final concentration of 25 mg/mL. The vehicle composition is as follows: (1) 20% ethanol; 50% propylene glycol; 0.05% w/v Tween 20 and water (Mix); (2) PBS buffer (PBS). Test articles were administered to male Sprague-Dawley rats at a single oral dose of 50 mg/kg. Each article was tested in three rats. Blood samples (0.2-0.3 mL) were collected at the post-dose time of 10, 20, 40, 60, 120, 180 and 360 minutes. The harvested blood was centrifuged to isolate plasma. The resulting plasma was separated and stored at −70° C. Plasma samples together with standards and quality control samples were treated to precipitate proteins, then analyzed by HPLC-MS, for the presence of PL-462, PL-100, PL-515 and PL-337.

[1] = parent drug dosed 50 mg/Kg po in Mix vehicle (20% ethanol; 50% propylene glycol; 0.05% w/v Tween 20 and water)
[2] = prodrug dosed 50 mg/Kg po in PBS vehicle, parent drug detected (PL-100 or PL-337)

COC(=O)N[C@H](C(=O)NCCCC[C@@H](CO)N(CC(C)C)S(=O)(=O)c1ccc(N)cc1)C(c1ccccc1)c1ccccc1 [PL-100, (1S,5S)-(1-{5-[(4-amino-benzenesulfonyl)-isobutyl-amino]-6-hydroxy-hexylcarbamoyl}-2,2-diphenyl-ethyl)-carbamic acid methyl ester]
AUC [1]: 0.675 ± 0.171 μg/hr * ml

COC(=O)N[C@H](C(=O)NCCCC[C@@H](CO)N(CC(C)C)S(=O)(=O)c1ccc(N)c(F)c1)C(c1ccccc1)c1ccccc1 [PL-337, (1-{5-[(4-amino-3-fluoro-benzenesulfonyl)-isobutyl-amino]-6-hydroxy-hexylcarbamoyl}-2,2-diphenyl-ethyl)-carbamic acid methyl ester]
AUC [1]: 1.180 ± 0.196 μg/hr * ml

COC(=O)N[C@H](C(=O)NCCCC[C@@H](COP(=O)([O-])[O-])N(CC(C)C)S(=O)(=O)c1ccc(N)cc1)C(c1ccccc1)c1ccccc1.[Na+].[Na+] [PL-462, (1S,5S)-(1-{5-[(4-amino-benzenesulfonyl)-isobutyl-amino]-6-phosphonooxy-hexylcarbamoyl}-2,2-diphenyl-ethyl)-carbamic acid methyl ester sodium salt]
Presence of the unchanged prodrug in the blood samples: None of the PL-462 and PL-515 compounds, delivered as aqueous solutions, are detected
Delivery of parent drug (PL-100 / PL-337) compared to non-aqueous formulations of the parent drug: equivalent to slightly superior
AUC [2]: 0.816 ± 0.295 μg/hr * ml

COC(=O)N[C@H](C(=O)NCCCC[C@@H](COP(=O)(O)O)N(CC(C)C)S(=O)(=O)c1ccc(N)c(F)c1)C(c1ccccc1)c1ccccc1 [PL-515, (1S,5S)-(1-{5-[(4-amino-3-fluoro-benzenesulfonyl)-isobutyl-amino]-6-phosphonooxy-hexylcarbamoyl}-2,2-diphenyl-ethyl)-carbamic acid methyl ester]
Presence of the unchanged prodrug in the blood samples: None of the PL-462 and PL-515 compounds, delivered as aqueous solutions, are detected
Delivery of parent drug (PL-100 / PL-337) compared to non-aqueous formulations of the parent drug: equivalent to slightly superior
AUC [2]: 1.075 ± 0.625 μg/hr * ml
